{
  "source": "ChEMBL document CHEMBL1201862",
  "about": "“PubChem BioAssay data set” (2004)",
  "assay_in_all_cases": "DTP human tumour cell line panel, 48 h",
  "key": {"A498": {"tested_on": "A498"}, "A549": {"tested_on": "A549"}, "ACHN": {"tested_on": "ACHN"}, "CAKI-1": {"tested_on": "CAKI-1"}, "CCRF-CEM": {"tested_on": "CCRF-CEM"}, "COLO 205": {"tested_on": "COLO 205"}, "DU-145": {"tested_on": "DU-145"}, "HCC 2998": {"tested_on": "HCC 2998"}, "HCT-116": {"tested_on": "HCT-116"}, "HCT-15": {"tested_on": "HCT-15"}, "HL-60": {"tested_on": "HL-60"}, "HOP-62": {"tested_on": "HOP-62"}, "HOP-92": {"tested_on": "HOP-92"}, "HT-29": {"tested_on": "HT-29"}, "Hs-578T": {"tested_on": "Hs-578T"}, "IGROV-1": {"tested_on": "IGROV-1"}, "K562": {"tested_on": "K562"}, "LOX IMVI": {"tested_on": "LOX IMVI"}, "M14": {"tested_on": "M14"}, "MCF7": {"tested_on": "MCF7"}, "MDA-MB-231": {"tested_on": "MDA-MB-231"}, "MDA-MB-435": {"tested_on": "MDA-MB-435"}, "MDA-N": {"tested_on": "MDA-N"}, "MOLT-4": {"tested_on": "MOLT-4"}, "NCI-H226": {"tested_on": "NCI-H226"}, "NCI-H23": {"tested_on": "NCI-H23"}, "NCI-H460": {"tested_on": "NCI-H460"}, "NCI-H522": {"tested_on": "NCI-H522"}, "NCI/ADR-RES": {"tested_on": "NCI/ADR-RES"}, "OVCAR-3": {"tested_on": "OVCAR-3"}, "OVCAR-4": {"tested_on": "OVCAR-4"}, "OVCAR-5": {"tested_on": "OVCAR-5"}, "OVCAR-8": {"tested_on": "OVCAR-8"}, "PC-3": {"tested_on": "PC-3"}, "RPMI-8226": {"tested_on": "RPMI-8226"}, "SF-295": {"tested_on": "SF-295"}, "SK-MEL-28": {"tested_on": "SK-MEL-28"}, "SK-MEL-2": {"tested_on": "SK-MEL-2"}, "SK-MEL-5": {"tested_on": "SK-MEL-5"}, "SK-OV-3": {"tested_on": "SK-OV-3"}, "SN12C": {"tested_on": "SN12C"}, "SNB-19": {"tested_on": "SNB-19"}, "SNB-75": {"tested_on": "SNB-75"}, "SR": {"tested_on": "SR"}, "SW-620": {"tested_on": "SW-620"}, "T47D": {"tested_on": "T47D"}, "TK-10": {"tested_on": "TK-10"}, "U-251": {"tested_on": "U-251"}, "UACC-257": {"tested_on": "UACC-257"}, "UO-31": {"tested_on": "UO-31"}},
  "note": "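In this assay, cells in 96-well plates receive the compound at five concentrations for 48 hours. Endpoints are linearly interpolated between the surrounding concentrations. Abbreviation: GI50, concentration required for 50% inhibition of growth.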 Active and inactive are the calls of the source. No stated cut-off is given here; in the data, active = GI50 up to about 1.1 µM and inactive = higher.",
  "data": [
    {"smiles": "CCOP(=O)(CN=C(c1ccccc1)c1ccccc1)OCC", "values": [
      {"measurement": "GI50", "setting": "A498", "value": "73.8 µM (inactive)"},
      {"measurement": "GI50", "setting": "A549", "value": "> 100 µM (inactive)"},
      {"measurement": "GI50", "setting": "ACHN", "value": "> 100 µM (inactive)"},
      {"measurement": "GI50", "setting": "CAKI-1", "value": "> 100 µM (inactive)"},
      {"measurement": "GI50", "setting": "CCRF-CEM", "value": "> 100 µM (inactive)"},
      {"measurement": "GI50", "setting": "COLO 205", "value": "> 100 µM (inactive)"},
      {"measurement": "GI50", "setting": "DU-145", "value": "> 100 µM (inactive)"},
      {"measurement": "GI50", "setting": "HCC 2998", "value": "> 100 µM (inactive)"},
      {"measurement": "GI50", "setting": "HCT-116", "value": "> 100 µM (inactive)"},
      {"measurement": "GI50", "setting": "HCT-15", "value": "> 100", "unit": "µM"},
      {"measurement": "GI50", "setting": "HL-60", "value": "87.1 µM (inactive)"},
      {"measurement": "GI50", "setting": "HOP-62", "value": "> 100 µM (inactive)"},
      {"measurement": "GI50", "setting": "HOP-92", "value": "> 100 µM (inactive)"},
      {"measurement": "GI50", "setting": "HT-29", "value": "> 100 µM (inactive)"},
      {"measurement": "GI50", "setting": "Hs-578T", "value": "> 100 µM (inactive)"},
      {"measurement": "GI50", "setting": "IGROV-1", "value": "> 100 µM (inactive)"},
      {"measurement": "GI50", "setting": "K562", "value": "> 100 µM (inactive)"},
      {"measurement": "GI50", "setting": "LOX IMVI", "value": "> 100 µM (inactive)"},
      {"measurement": "GI50", "setting": "M14", "value": "> 100 µM (inactive)"},
      {"measurement": "GI50", "setting": "MCF7", "value": "> 100 µM (inactive)"},
      {"measurement": "GI50", "setting": "MDA-MB-231", "value": "> 100 µM (inactive)"},
      {"measurement": "GI50", "setting": "MDA-MB-435", "value": "> 100 µM (inactive)"},
      {"measurement": "GI50", "setting": "MDA-N", "value": "> 100 µM (inactive)"},
      {"measurement": "GI50", "setting": "MOLT-4", "value": "> 100 µM (inactive)"},
      {"measurement": "GI50", "setting": "NCI-H226", "value": "> 100 µM (inactive)"},
      {"measurement": "GI50", "setting": "NCI-H23", "value": "> 100 µM (inactive)"},
      {"measurement": "GI50", "setting": "NCI-H460", "value": "> 100 µM (inactive)"},
      {"measurement": "GI50", "setting": "NCI-H522", "value": "> 100 µM (inactive)"},
      {"measurement": "GI50", "setting": "NCI/ADR-RES", "value": "> 100 µM (inactive)"},
      {"measurement": "GI50", "setting": "OVCAR-3", "value": "63.2 µM (inactive)"},
      {"measurement": "GI50", "setting": "OVCAR-4", "value": "> 100 µM (inactive)"},
      {"measurement": "GI50", "setting": "OVCAR-5", "value": "> 100 µM (inactive)"},
      {"measurement": "GI50", "setting": "OVCAR-8", "value": "> 100 µM (inactive)"},
      {"measurement": "GI50", "setting": "PC-3", "value": "> 100 µM (inactive)"},
      {"measurement": "GI50", "setting": "RPMI-8226", "value": "> 100 µM (inactive)"},
      {"measurement": "GI50", "setting": "SF-295", "value": "> 100 µM (inactive)"},
      {"measurement": "GI50", "setting": "SK-MEL-28", "value": "> 100 µM (inactive)"},
      {"measurement": "GI50", "setting": "SK-MEL-2", "value": "> 100 µM (inactive)"},
      {"measurement": "GI50", "setting": "SK-MEL-5", "value": "> 100 µM (inactive)"},
      {"measurement": "GI50", "setting": "SK-OV-3", "value": "> 100 µM (inactive)"},
      {"measurement": "GI50", "setting": "SN12C", "value": "> 100 µM (inactive)"},
      {"measurement": "GI50", "setting": "SNB-19", "value": "> 100 µM (inactive)"},
      {"measurement": "GI50", "setting": "SNB-75", "value": "> 100 µM (inactive)"},
      {"measurement": "GI50", "setting": "SR", "value": "> 100 µM (inactive)"},
      {"measurement": "GI50", "setting": "SW-620", "value": "> 100 µM (inactive)"},
      {"measurement": "GI50", "setting": "T47D", "value": "86.7 µM (inactive)"},
      {"measurement": "GI50", "setting": "TK-10", "value": "> 100 µM (inactive)"},
      {"measurement": "GI50", "setting": "U-251", "value": "> 100 µM (inactive)"},
      {"measurement": "GI50", "setting": "UACC-257", "value": "> 100 µM (inactive)"},
      {"measurement": "GI50", "setting": "UO-31", "value": "> 100 µM (inactive)"}
    ]}
  ]
}
